Source: paper PMC4833932, “Cytotoxicity and cell cycle arrest induced by andrographolide lead to programmed cell death of MDA-MB-231 breast cancer cell line” (Journal of Biomedical Science, 2016)
Like-named read-outs stand apart in the source and are kept apart here.

What was measured:
[1] = In vivo pharmacokinetic study, plasma LC-MS/MS; design: species or system Female BALB/c mice; details: for Plasma exposure at 24 h: LLOQ 2.44 ng/ml; for bioavailability: PO 50 mg/kg vs IV 5 mg/kg; for half-life: read-out: Terminal T½ (converted); for AUC(0-t): read-out: AUC(0-8)
Protocol: Female BALB/c mice, being divided into two groups (n = 6 per group), received andrographolide via oral route (PO) as well as intravenous (IV) bolus dosing at 50 mg/kg (equivalent to 142.73 μmol/kg and dose volume, 10 ml/kg) and 5 mg/kg body weight (equivalent to 14.27 μmol/kg and dose volume, 5 ml/kg) respectively. The formulation was prepared in 10 % DMSO, 10 % Cremophor and 80 % 1/15 (M) Na2HPO4 with dose volume of 10 ml/kg and 5 ml/kg for oral and IV respectively. ~50 μl of blood samples were collected at each time points (0.25, 0.5, 1, 2, 4, 8 and 24 h for PO and 0.08, 0.25, 0.5, 1, 2, 4, 8 and 24 h for IV) into heparinized capillary tubes by piercing the saphenous vein using a disposable needle (26 G). Blood samples were centrifuged at 3000 rpm for 10 min at 4 °C. The resulting plasma samples were stored at –80 °C until bioanalysis.
Analysis of plasma samples were performed using a liquid chromatography tandem mass spectroscopy (API-4000, AB Sciex Instruments, Foster City, CA) attached with the ESI source. The LC system consisted of LC-20ADvp pump (Shimadzu, Kyoto, Japan) and CTC PAL (HTS) autosampler. Liquid chromatography was performed using a Luna C18 column (2 × 30 mm, 5 μ particle) of Phenomenex (Torrance, CA) and the mobile phase consisted of 2 mM ammonium acetate in water (A) and 80: 20 (v/v) MeCN: Solvent A (B). The gradient elution program was as follows: first 60 s only A for washing, then 60 s for gradient up to 100 % B and it was continued for next 60 s. Total run time was 3.5 min with a flow of 0.8 ml/min at room temperature. Samples were detected and quantified using Analyst 1.4.2. Internal standard used was diclofenac.
The concentrations of test samples were determined from the standard curve prepared by spiking 2 μl of working stock in 98 μl of blank plasma along with the quality control samples (low, mid and high). The linear equation of the standard curve was obtained by regressional analysis of the peak area ratio of analyte to internal standard versus nominal concentration with a weighting factor of 1/X2. The calibration curve was linear in the concentration range 2.44 (LLOQ) to 1250 ng/ml.

[2] = test system: Bcl-2; experiment: Western blot, protein expression in MDA-MB-231 cells; assay type: cell-based, human; details: 30 μM, 48 h
Protocol: (§1) Cells from control regime and andrographolide treatment (30 μM, 48 h) were used for Western blot. After centrifugation, cell pellets were lysed in RIPA buffer containing protease and phosphatase inhibitors (Roche, Germany). Each cell lysate was used for protein assay with Bio-Rad protein assay kit (Bio-Rad, USA). A protein sample of 50 μg was electrophoresed in a 12 % SDS-PAGE. Proteins were electro-transferred from the gel onto a nitrocellulose membrane (Amersham Biosciences, UK). After incubating with blocking buffer containing 5 % nonfat milk for 1 h, the membranes were probed with the primary antibody specific for Bcl-xL (1:750 dilution), Bcl-2 (1:1000), Bax (1:1000), cytochrome c (1:800) and Apaf-1 (1:500) at 4 °C. Membrane was then washed thrice with TBST (Tris buffered saline having 0.1 % Tween-20, pH 7.5), exposed to horseradish peroxidase conjugated secondary antibody (1:2500) and was then kept at 25 °C for 1 h. The membrane was then finally washed thrice with TBST. The protein bands were visualized by incubating the membrane with diaminobenzidine/hydrogen peroxide (Sigma-Aldrich) for color reaction. β-Actin and COX IV were also detected as loading controls.

[3] = test system: Bcl-xL; experiment: as above; assay type: cell-based, human; details: 30 μM, 48 h
Protocol: as §1

[4] = test system: Bax; experiment: as above; assay type: cell-based, human; details: 30 μM, 48 h
Protocol: as §1

[5] = test system: Apaf-1; experiment: as above; assay type: cell-based, human; details: 30 μM, 48 h
Protocol: as §1

[6] = test system: MDA-MB-231; experiment: In vitro cytotoxicity (MTT) assay; assay type: cell-based, human
Protocol: The effect of andrographolide on cell viability was measured by MTT assay following the method by Mosmann. Briefly, the cells (1 × 10^5 cells per ml) were seeded in a 96 well micro titer plate (100 μl per well) with replications. Treatment was conducted for 24 and 48 h with different concentrations (0, 5, 7.5, 15, 30, 45, 60, 75 and 100 μM) of andrographolide. After incubation, 20 μl of 5 mg/ml MTT stock solution was added to each well and incubated for 4 h at 37 °C. The obtained formazan crystals were solubilized with DMSO and the absorbance was measured at 570 nm using a microplate reader (SpectraMax M5, Molecular Devices, USA). Cell viability (%) has been shown as a ratio of absorbance (A570) in treated cells to absorbance in control cells (0.1 % DMSO) (A570). The IC50 was calculated as the concentration of sample needed to reduce 50 % of the absorbance in comparison to the DMSO-treated control. Percent cell viability was calculated following the equation: Cellviability%=A570Sample/A570ControlDMSO×100

[7] = test system: caspase-3; experiment: Caspase activity assay (fluorometric, DEVD-AFC) in MDA-MB-231 cells; assay type: cell-based, human; details: 0-60 μM, 24 h
Protocol: MDA-MB-231 cells (1 × 10^5 cells per ml) were incubated with different concentrations of andrographolide (0, 15, 30, 45 and 60 μM) for 24 h and then centrifuged to detect caspase-3 and caspase-9 activation using caspase fluoremetric protease assay kit following manufacturer’s instructions. Briefly, cells were lysed in RIPA buffer supplemented with protease inhibitor cocktail and 10 μl lysate were diluted with 10 μl substrate buffer (1:1) containing 100 μM each of fluorogenic substrate, DEVD-AFC and LEHD-AFC for caspase-3 and caspase-9 respectively, and was then incubated for 90 min at 37 °C. Reactions were stopped using 0.2 mM sodium phosphate buffer (pH 7.5) and fluorescence was quantified by a spectrofluorometer (excitation, 405 nm; emission, 505 nm). Experiment was also performed using MCF-7 cells.

[8] = female, BALB/c, mouse, plasma, iv, 5 mg/kg, IV at 5 mg/kg, female BALB/c mice
[9] = female, BALB/c, mouse, plasma, po, 50 mg/kg, PO at 50 mg/kg, female BALB/c mice
[10] = mouse, plasma, IV at 5 mg/kg, female BALB/c mice
[11] = mouse, plasma, PO at 50 mg/kg, female BALB/c mice

C=C1CC[C@@H]2[C@](C)(CO)[C@H](O)CC[C@@]2(C)[C@@H]1C/C=C1/C(=O)OC[C@H]1O [andrographolide]
Plasma exposure at 24 h ([1]; IV arm, 5 mg/kg): below lower limit of quantitation | bioavailability ([1]; female BALB/c mice): 9.27 ± 1.69% | Plasma exposure at 24 h ([1]; PO arm, 50 mg/kg): below lower limit of quantitation | CL ([1]; PO at 50 mg/kg, female BALB/c mice): 1045 ± 201.7 mL/min/kg | AUC(0-inf) [1, 8]: 2.51 ± 0.56 µM·h | clearance [1, 8]: 91.8 mL/min/kg | half-life [1, 8]: 1.86 ± 0.21 h | bioavailability ([1]; female, BALB/c, mouse, plasma, oral, 50 mg/kg, female BALB/c mice, read-out: Bioavailability): < 10% | AUC(0-inf) [1, 9]: 2.33 ± 0.42 µM·h | half-life [1, 9]: 3.3 ± 0.35 h | C0 [1, 10]: 14.6 ± 4.04 µM | AUC(0-t) [1, 10]: 1.96 ± 0.38 µM·h | Cmax [1, 11]: 0.73 ± 0.17 µM | Tmax [1, 11]: 0.42 ± 0.14 h | AUC(0-t) [1, 11]: 1.92 ± 0.36 µM·h | Bcl-2 expression, down regulated [2]: 1.96 ± 0.14 fold | Bcl-xL expression, down-regulated compared to control [3]: 1.47 ± 0.06 fold | Bax expression, up-regulated [4]: 2.39 ± 0.45 fold | Apaf-1 expression, increase [5]: 1.49 ± 0.17 fold | IC50 ([6]; Homo sapiens, MDA-MB-231, 24 h): 52 µM | IC50 ([6]; Homo sapiens, MDA-MB-231, 48 h): 30 µM | IC50 ([6]; MDA-MB-231, 48 h): 30.3 µM | activation of caspase-3 [7]: gradual dose-dependent activation
